Earlier results in US20220304955A1 (Nacuity Pharmaceuticals, Inc., priority 2021, published 2022).

Target: T1, glutamate cysteine ligase (GCL, EC 6.3.2.2) (Homo sapiens, UniProt P48506)
T1 sequence (P48506 1-637): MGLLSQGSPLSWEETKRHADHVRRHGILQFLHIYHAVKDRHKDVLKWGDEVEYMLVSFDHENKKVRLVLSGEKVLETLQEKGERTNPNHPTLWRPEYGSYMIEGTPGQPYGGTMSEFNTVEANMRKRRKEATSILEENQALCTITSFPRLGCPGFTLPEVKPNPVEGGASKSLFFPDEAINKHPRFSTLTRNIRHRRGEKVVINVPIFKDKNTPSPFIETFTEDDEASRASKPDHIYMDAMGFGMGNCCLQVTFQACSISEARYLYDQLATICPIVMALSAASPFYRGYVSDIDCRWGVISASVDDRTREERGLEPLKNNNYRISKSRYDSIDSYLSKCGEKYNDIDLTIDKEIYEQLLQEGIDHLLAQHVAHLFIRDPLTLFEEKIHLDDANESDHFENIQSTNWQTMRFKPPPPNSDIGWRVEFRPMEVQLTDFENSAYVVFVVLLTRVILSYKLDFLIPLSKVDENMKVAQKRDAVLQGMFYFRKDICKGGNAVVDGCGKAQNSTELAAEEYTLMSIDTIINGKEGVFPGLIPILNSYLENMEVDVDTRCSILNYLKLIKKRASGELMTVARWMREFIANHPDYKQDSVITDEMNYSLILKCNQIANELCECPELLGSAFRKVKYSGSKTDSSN
T1 sequence (P48507 1-274 partner): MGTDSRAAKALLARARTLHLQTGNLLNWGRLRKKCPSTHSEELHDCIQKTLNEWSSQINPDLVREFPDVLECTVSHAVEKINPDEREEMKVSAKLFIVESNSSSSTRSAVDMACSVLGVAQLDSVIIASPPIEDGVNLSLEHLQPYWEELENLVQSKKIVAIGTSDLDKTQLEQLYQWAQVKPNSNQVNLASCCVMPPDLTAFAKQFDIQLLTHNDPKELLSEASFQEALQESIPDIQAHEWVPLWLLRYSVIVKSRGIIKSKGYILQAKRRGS
Settings: read-out: apparent Km; cited from earlier work

Compound: N[C@@H](CS)C(=O)O [cysteine, L-cysteine]
- Km: 100 to 300 µM
